Measurements from US8759264B2, “Water-based hydraulic fluids comprising dithio-di(aryl carbolic acids)” (Clarient Finance (BVI) Limited, priority 2008, dated 2014).
Like-named read-outs stand apart in the source and are kept apart here.

Tests used:
[1] = tested on: Fish; assay: Fish toxicity; details: in vivo
[2] = tested on: Algal; assay: Algal toxicity; details: in vivo
[3] = Biodegradability (OECD 306)

Compound	Fish toxicity (LC50) [1] [mg/L]	Algal toxicity (EC50) [2] [mg/L]	Biodegradability (OECD 306) [3] [%]	Biodegradability (OECD 306) ([3]; OECD 306) [%]
N-Aminoethyloleyl-imidazoline	<10	<1	>60	–
S=c1[nH]c2ccccc2s1 [Mercaptobenzothiazole]	<10	<1	–	<20
O=C(O)c1ccccc1SSc1ccccc1C(=O)O [Dithiodi(benzoic acid), o-dithiodibenzoic acid]	>100	>100	–	>30
